Test results as given in patent publication US20110212885A1, “OPHTHALMIC AND CONTACT LENS SOLUTIONS CONTAINING PEPTIDES AS PRESERVATIVE” (priority 2003, published 2011).
Read-outs that look alike come from different tables or passages of the source. Non-standard residues stand in square brackets, D forms with d. Residues, ends and D or L forms follow the SMILES beside them. No end group written: not given here.

Columns and labels:
Format in all cases: cell-based
[1] = test system: Serratia marcesens (ATCC 13880); details: 1 hour exposure; for biocidal effect on S. marcescens (in words): 100 ug/mL in water; for average cfu/mL: S. marcescens, peptide 100 ug/mL in water
Protocol: (§1) Peptides were tested using a conventional Disinfection Efficacy antimicrobial assay (ISO 14729), commonly used in evaluating biocidal efficacy of preservatives for use in contact lens care solutions. Briefly, a known concentration of organisms are inoculated into the test solution, and allowed to incubate for a given amount of time, after which they are neutralized to inactivate the preservative. Samples are serially diluted and plated in duplicate onto petri plates onto which growth medium is poured. The plates are incubated at 35° C. (bacteria) or 25° C. (yeast and molds) for 48 hours. The average number of colony forming units is determined on countable plates (the dilution at which between 30 to 300 cfu/plate are observed, except when colonies are observed only on the −1 dilution plates). The log reduction resulting from exposure to the test solution is calculated based on the growth of positive controls plated simultaneously. Recovery controls, to confirm that the test solution is neutralized, and viability controls are also plated.
(§2) Method: The Disinfection Efficacy test was used with the following organisms: Staphylococcus aureus (ATCC 6538), Pseudomonas aeruginosa (ATCC 9027), Serratia marcesens (ATCC 13880), Candida albicans (ATCC 10231), and Fusarium solani (ATCC 36031). The peptides were diluted in water at a concentration of 100 ug/mL (adjusted for purity). Organism cultures were prepared to result in an inoculum concentration between 10^7 and 10^8 cfu/mL. The test solutions were inoculated for a 1 hour and a 3 hour exposure period, neutralized with DEB with 0.1% SLS added, and plated in duplicate.

[2] = test system: Fusarium solani (ATCC 36031); details: 1 hour exposure; for biocidal effect on F. solani (in words): 100 ug/mL in water; for average cfu/mL: F. solani, peptide 100 ug/mL in water
Protocol: as §1, §2

[3] = test system: Pseudomonas aeruginosa (ATCC 9027); details: for biocidal effect on P. aeruginosa (in words): 100 ug/mL in water; for average cfu/mL: P. aeruginosa; for lowest concentration giving complete kill of P. aeruginosa: Experiment 3, tested 100 to 1 ug/mL in water
Protocol: as §1, §2
(§3) Method: The Disinfection Efficacy test was used as in experiment 2 using Staphylococcus aureus and Pseudomonas aeruginosa. The peptides were diluted in water at concentrations of 100, 33.3, 10, 3.33, and 1 ug/mL. The test solutions were inoculated for 1 hour, neutralized, and plated in duplicate.

[4] = test system: Staphylococcus aureus (ATCC 6538); details: for biocidal effect on S. aureus (in words): 100 ug/mL in water; for average cfu/mL: S. aureus; for concentration giving complete kill of S. aureus: tested 100 to 1 ug/mL in water
Protocol: as §1, §2, §3

[5] = test system: Candida albicans (ATCC 10231); details: 1 hour exposure; for biocidal effect on C. albicans (in words): 100 ug/mL in water; for average cfu/mL: C. albicans, peptide 100 ug/mL in water
Protocol: as §1
Method: Candida albicans (ATCC 10231) stock cultures were incubated and prepared to result in cell suspensions containing between 10^7 and 10^8 cfu/mL. The Disinfection Efficacy test, as described above, was used, with the following modification: Since the standard Dey-Engley broth used to neutralize preservatives was not necessarily expected to neutralize the peptide, 0.1% sodium laurel sulfate (SLS) was added to the neutralization solution. Controls confirmed that this was effective in neutralizing the peptide test solution.
as §2

[6] = peptide 100 ug/mL in water, 1 hour exposure
[7] = T = 1 hr, Conc. 1 μg/mL in water
[8] = T = 1 hr, Conc. 3.33 μg/mL in water
[9] = T = 1 hr, Conc. 10 μg/mL in water
[10] = T = 1 hr, Conc. 33 μg/mL in water
[11] = T = 1 hr, Conc. 100 μg/mL in water

Compound	biocidal effect on S. marcescens (in words) [1]	average cfu/mL [1]	biocidal effect on F. solani (in words) [2]	average cfu/mL [2]	biocidal effect on P. aeruginosa (in words) ([3]; 1 hour exposure)	average cfu/mL [3, 6]	biocidal effect on S. aureus (in words) ([4]; 1 hour exposure)	average cfu/mL [4, 6]	average cfu/mL [5]	lowest concentration giving complete kill of P. aeruginosa ([3]; 1 hour exposure)	average cfu/mL [3, 7]	average cfu/mL [3, 8]	average cfu/mL [3, 9]	average cfu/mL [3, 10]	average cfu/mL [3, 11]	average cfu/mL [4, 7]	average cfu/mL [4, 8]	average cfu/mL [4, 9]	average cfu/mL [4, 10]	average cfu/mL [4, 11]	further results
C[C@@H](N)C(=O)N[C@H](CCCCN)C(=O)N[C@H](CCCNC(=N)N)C(=O)N[C@H](Cc1c[nH]cn1)C(=O)N[C@H](Cc1c[nH]cn1)C(=O)NCC(=O)N[C@H](Cc1ccc(O)cc1)C(=O)N[C@H](CCCCN)C(=O)N[C@H](CCCNC(=N)N)C(=O)N[C@H](CCCCN)C(=O)N[C@H](Cc1ccccc1)C(=O)N[C@H](Cc1c[nH]cn1)C(N)=O [P113D] (H-[dA][dK][dR][dH][dH]G[dY][dK][dR][dK][dF][dH]-NH2; N-terminus and C-terminus assumed)	no effect	2.80E+05 cfu/mL	effective	6.40E+03 cfu/mL	effective	2.00E+01 cfu/mL	no effect	4.70E+05 cfu/mL	3.30E+03 cfu/mL	–	–	–	–	–	–	–	–	–	–	–	biocidal effect on C. albicans (in words) [5]: effective
AKRHHGYKRKFH-NH2 [P-113]	no effect	4.00E+05 cfu/mL	effective	6.00E+03 cfu/mL	effective	6.00E+01 cfu/mL	no effect	6.10E+05 cfu/mL	5.51E+03 cfu/mL	3.33 µg/mL	3.90E+02 cfu/mL	5.00E+00 cfu/mL	1.50E+01 cfu/mL	0.00E+00 cfu/mL	0.00E+00 cfu/mL	5.95E+04 cfu/mL	1.44E+05 cfu/mL	2.02E+05 cfu/mL	3.40E+05 cfu/mL	3.80E+05 cfu/mL	effectiveness against S. aureus (in words) ([4]; Experiment 3, 1 hour exposure, 100 to 1 ug/mL in water): not effective; biocidal effect on C. albicans (in words) [5]: effective
FAKKFAKKFKKFAKKFAKFAFAF [D2A21]	–	0.00E+00 cfu/mL	–	0.00E+00 cfu/mL	–	0.00E+00 cfu/mL	–	0.00E+00 cfu/mL	0.00E+00 cfu/mL	1 µg/mL	0.00E+00 cfu/mL	0.00E+00 cfu/mL	0.00E+00 cfu/mL	0.00E+00 cfu/mL	0.00E+00 cfu/mL	1.12E+03 cfu/mL	0.00E+00 cfu/mL	1.00E+01 cfu/mL	0.00E+00 cfu/mL	0.00E+00 cfu/mL	concentration giving complete kill of S. aureus ([4]; Experiment 3, 1 hour exposure): 3.33 µg/mL
FKLRAKIKVRLRAKIKL [D4E1]	–	0.00E+00 cfu/mL	–	0.00E+00 cfu/mL	–	0.00E+00 cfu/mL	–	0.00E+00 cfu/mL	0.00E+00 cfu/mL	1 µg/mL	1.00E+01 cfu/mL	0.00E+00 cfu/mL	0.00E+00 cfu/mL	5.00E+00 cfu/mL	0.00E+00 cfu/mL	5.00E+00 cfu/mL	0.00E+00 cfu/mL	0.00E+00 cfu/mL	0.00E+00 cfu/mL	0.00E+00 cfu/mL	concentration giving complete kill of S. aureus ([4]; Experiment 3, 1 hour exposure): 1 µg/mL
